Blank lines part the entries; values can stand above or below the molecule they belong to.
What was measured:
Assay type in all cases: functional, cell membranes, Membrane vesicle
[1] = target: T1, MRP4 (ATP-binding cassette sub-family C member 4) (Homo sapiens, UniProt O15439); assay: TP_TRANSPORTER: inhibition of MTX uptake (MTX: 20 uM, Trequinsin: 10 uM) in membrane vesicles from MRP4-expressing Sf9 cells; set-up: scale not given: the % may be the effect or the level left; conditions: probe MTX (20 uM), read-out: Activity
T1 sequence (O15439 whole entry): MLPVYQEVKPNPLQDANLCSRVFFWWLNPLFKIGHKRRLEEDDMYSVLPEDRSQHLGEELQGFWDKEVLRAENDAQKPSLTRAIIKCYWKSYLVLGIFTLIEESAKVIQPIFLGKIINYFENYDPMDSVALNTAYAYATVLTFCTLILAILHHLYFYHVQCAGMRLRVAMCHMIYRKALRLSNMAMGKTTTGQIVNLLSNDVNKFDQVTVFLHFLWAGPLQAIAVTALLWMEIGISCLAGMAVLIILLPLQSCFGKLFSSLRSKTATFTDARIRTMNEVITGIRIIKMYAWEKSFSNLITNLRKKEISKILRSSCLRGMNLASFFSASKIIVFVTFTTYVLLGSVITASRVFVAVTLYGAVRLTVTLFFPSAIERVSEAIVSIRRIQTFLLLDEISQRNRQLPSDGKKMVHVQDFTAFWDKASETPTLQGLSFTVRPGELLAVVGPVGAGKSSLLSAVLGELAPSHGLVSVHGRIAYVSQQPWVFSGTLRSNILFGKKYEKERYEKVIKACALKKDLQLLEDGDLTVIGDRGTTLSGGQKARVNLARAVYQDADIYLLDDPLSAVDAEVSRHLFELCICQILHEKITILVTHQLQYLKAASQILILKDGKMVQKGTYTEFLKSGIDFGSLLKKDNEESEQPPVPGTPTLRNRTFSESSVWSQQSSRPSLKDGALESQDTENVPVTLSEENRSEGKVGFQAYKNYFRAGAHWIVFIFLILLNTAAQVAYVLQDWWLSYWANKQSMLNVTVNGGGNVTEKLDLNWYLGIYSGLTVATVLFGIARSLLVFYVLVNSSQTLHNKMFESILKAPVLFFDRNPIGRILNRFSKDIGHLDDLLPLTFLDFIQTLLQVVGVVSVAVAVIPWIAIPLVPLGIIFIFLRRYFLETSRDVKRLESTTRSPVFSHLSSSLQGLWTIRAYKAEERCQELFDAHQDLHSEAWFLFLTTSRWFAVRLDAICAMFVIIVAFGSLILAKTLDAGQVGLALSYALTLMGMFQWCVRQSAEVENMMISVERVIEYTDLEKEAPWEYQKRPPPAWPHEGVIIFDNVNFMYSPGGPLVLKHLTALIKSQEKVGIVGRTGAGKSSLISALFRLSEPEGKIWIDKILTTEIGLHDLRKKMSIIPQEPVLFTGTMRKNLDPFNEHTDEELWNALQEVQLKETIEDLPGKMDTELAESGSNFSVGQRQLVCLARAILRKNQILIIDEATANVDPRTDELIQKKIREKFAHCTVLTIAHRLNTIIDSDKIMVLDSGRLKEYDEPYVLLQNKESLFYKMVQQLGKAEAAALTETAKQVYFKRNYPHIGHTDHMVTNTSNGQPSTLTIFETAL

[2] = target: T1, MRP4 (ATP-binding cassette sub-family C member 4); assay: TP_TRANSPORTER: inhibition of MTX uptake (MTX: 20 uM, Sildenafil: 10 uM) in membrane vesicles from MRP4-expressing Sf9 cells; set-up: scale not given: the % may be the effect or the level left; conditions: probe MTX (20 uM), read-out: Activity
[3] = target: T1, MRP4 (ATP-binding cassette sub-family C member 4); assay: TP_TRANSPORTER: inhibition of MTX uptake (MTX: 20 uM, Folic acid: 300 uM) in membrane vesicles from MRP4-expressing Sf9 cells; set-up: scale not given: the % may be the effect or the level left; conditions: probe MTX (20 uM), read-out: Activity
[4] = target: T1, MRP4 (ATP-binding cassette sub-family C member 4); assay: TP_TRANSPORTER: inhibition of MTX uptake (MTX: 20 uM, Verapamil: 30 uM) in membrane vesicles from MRP4-expressing Sf9 cells; set-up: scale not given: the % may be the effect or the level left; conditions: probe MTX (20 uM), read-out: Activity
[5] = target: T1, MRP4 (ATP-binding cassette sub-family C member 4); assay: TP_TRANSPORTER: inhibition of MTX uptake (MTX: 20 uM, Leucovorin: 300 uM) in membrane vesicles from MRP4-expressing Sf9 cells; set-up: scale not given: the % may be the effect or the level left; conditions: probe MTX (20 uM), read-out: Activity
[6] = target: T1, MRP4 (ATP-binding cassette sub-family C member 4); assay: TP_TRANSPORTER: inhibition of MTX uptake (MTX: 20 uM, Zaprinast: 10 uM) in membrane vesicles from MRP4-expressing Sf9 cells; set-up: scale not given: the % may be the effect or the level left; conditions: probe MTX (20 uM), read-out: Activity
[7] = target: T1, MRP4 (ATP-binding cassette sub-family C member 4); assay: TP_TRANSPORTER: inhibition of MTX uptake (MTX: 20 uM, Probenecid: 300 uM) in membrane vesicles from MRP4-expressing Sf9 cells; set-up: scale not given: the % may be the effect or the level left; conditions: probe MTX (20 uM), read-out: Activity
[8] = target: T1, MRP4 (ATP-binding cassette sub-family C member 4); assay: TP_TRANSPORTER: inhibition of MTX uptake (MTX: 20 uM, cGMP: 300 uM) in membrane vesicles from MRP4-expressing Sf9 cells; set-up: scale not given: the % may be the effect or the level left; conditions: probe MTX (20 uM), read-out: Activity
[9] = target: T1, MRP4 (ATP-binding cassette sub-family C member 4); assay: TP_TRANSPORTER: inhibition of MTX uptake (MTX: 20 uM, Sulfinpyrazone: 300 uM) in membrane vesicles from MRP4-expressing Sf9 cells; set-up: scale not given: the % may be the effect or the level left; conditions: probe MTX (20 uM), read-out: Activity
[10] = target: T1, MRP4 (ATP-binding cassette sub-family C member 4); assay: TP_TRANSPORTER: inhibition of MTX uptake (MTX: 20 uM, MK571: 1 uM) in membrane vesicles from MRP4-expressing Sf9 cells; set-up: scale not given: the % may be the effect or the level left; conditions: probe MTX (20 uM), read-out: Activity
[11] = target: T1, MRP4 (ATP-binding cassette sub-family C member 4); assay: TP_TRANSPORTER: inhibition of MTX uptake (MTX: 20 uM, PSC-833: 10 uM) in membrane vesicles from MRP4-expressing Sf9 cells; set-up: scale not given: the % may be the effect or the level left; conditions: probe MTX (20 uM), read-out: Activity
[12] = target: T1, MRP4 (ATP-binding cassette sub-family C member 4); assay: TP_TRANSPORTER: inhibition of MTX uptake (MTX: 20 uM, E217betaG: 30 uM) in membrane vesicles from MRP4-expressing Sf9 cells; set-up: scale not given: the % may be the effect or the level left; conditions: probe MTX (20 uM), read-out: Activity
[13] = substrate: Nc1nc2c(c(=O)[nH]1)N(C=O)C(CNc1ccc(C(=O)N[C@@H](CCC(=O)O)C(=O)O)cc1)CN2; assay: (§1) TP_TRANSPORTER: uptake in membrane vesicles from MRP4-expressing Sf9 cells
[14] = substrate: Nc1nc2ncc(CNc3ccc(C(=O)N[C@@H](CCC(=O)O)C(=O)O)cc3)nc2c(=O)[nH]1; assay: as §1

Molecule: CCCN(CCC)S(=O)(=O)c1ccc(C(=O)O)cc1 [PROBENECID]
- activity at 300 µM [7]: 49.4%

Molecule: Nc1nc2c(ncn2[C@@H]2O[C@@H]3COP(=O)(O)O[C@H]3[C@H]2O)c(=O)[nH]1
- activity at 300 µM [8]: 46.5%

Molecule: C/C=C/C[C@@H](C)C(=O)[C@H]1C(=O)N[C@@H](C(C)C)C(=O)N(C)CC(=O)N(C)[C@@H](CC(C)C)C(=O)N[C@@H](C(C)C)C(=O)N(C)[C@@H](CC(C)C)C(=O)N[C@@H](C)C(=O)N[C@H](C)C(=O)N(C)[C@@H](CC(C)C)C(=O)N(C)[C@@H](CC(C)C)C(=O)N(C)[C@@H](C(C)C)C(=O)N1C [VALSPODAR]
- activity at 10 µM [11]: 56.4%

Molecule: C[C@]12CC[C@@H]3c4ccc(O)cc4CC[C@H]3[C@@H]1CC[C@@H]2O[C@@H]1O[C@H](C(=O)O)[C@@H](O)[C@H](O)[C@H]1O [ESTRADIOL 17B GLUCURONIDE]
- activity at 30 µM [12]: 39.9%

B1: ATP-binding cassette sub-family C member 4 (Homo sapiens) (protein)
chain: MLPVYQEVKPNPLQDANLCSRVFFWWLNPLFKIGHKRRLEEDDMYSVLPEDRSQHLGEELQGFWDKEVLRAENDAQKPSLTRAIIKCYWKSYLVLGIFTLIEESAKVIQPIFLGKIINYFENYDPMDSVALNTAYAYATVLTFCTLILAILHHLYFYHVQCAGMRLRVAMCHMIYRKALRLSNMAMGKTTTGQIVNLLSNDVNKFDQVTVFLHFLWAGPLQAIAVTALLWMEIGISCLAGMAVLIILLPLQSCFGKLFSSLRSKTATFTDARIRTMNEVITGIRIIKMYAWEKSFSNLITNLRKKEISKILRSSCLRGMNLASFFSASKIIVFVTFTTYVLLGSVITASRVFVAVTLYGAVRLTVTLFFPSAIERVSEAIVSIRRIQTFLLLDEISQRNRQLPSDGKKMVHVQDFTAFWDKASETPTLQGLSFTVRPGELLAVVGPVGAGKSSLLSAVLGELAPSHGLVSVHGRIAYVSQQPWVFSGTLRSNILFGKKYEKERYEKVIKACALKKDLQLLEDGDLTVIGDRGTTLSGGQKARVNLARAVYQDADIYLLDDPLSAVDAEVSRHLFELCICQILHEKITILVTHQLQYLKAASQILILKDGKMVQKGTYTEFLKSGIDFGSLLKKDNEESEQPPVPGTPTLRNRTFSESSVWSQQSSRPSLKDGALESQDTENVPVTLSEENRSEGKVGFQAYKNYFRAGAHWIVFIFLILLNTAAQVAYVLQDWWLSYWANKQSMLNVTVNGGGNVTEKLDLNWYLGIYSGLTVATVLFGIARSLLVFYVLVNSSQTLHNKMFESILKAPVLFFDRNPIGRILNRFSKDIGHLDDLLPLTFLDFIQTLLQVVGVVSVAVAVIPWIAIPLVPLGIIFIFLRRYFLETSRDVKRLESTTRSPVFSHLSSSLQGLWTIRAYKAEERCQELFDAHQDLHSEAWFLFLTTSRWFAVRLDAICAMFVIIVAFGSLILAKTLDAGQVGLALSYALTLMGMFQWCVRQSAEVENMMISVERVIEYTDLEKEAPWEYQKRPPPAWPHEGVIIFDNVNFMYSPGGPLVLKHLTALIKSQEKVGIVGRTGAGKSSLISALFRLSEPEGKIWIDKILTTEIGLHDLRKKMSIIPQEPVLFTGTMRKNLDPFNEHTDEELWNALQEVQLKETIEDLPGKMDTELAESGSNFSVGQRQLVCLARAILRKNQILIIDEATANVDPRTDELIQKKIREKFAHCTVLTIAHRLNTIIDSDKIMVLDSGRLKEYDEPYVLLQNKESLFYKMVQQLGKAEAAALTETAKQVYFKRNYPHIGHTDHMVTNTSNGQPSTLTIFETAL
- Km [13]: 640 µM
- Km [14]: 170 µM

Continued, values first:

- activity at 10 µM [1]: 25.7%
Molecule: COc1cc2c(cc1OC)-c1c/c(=N\c3c(C)cc(C)cc3C)n(C)c(=O)n1CC2 [TREQUINSIN]

- activity at 10 µM [2]: 46%
Molecule: CCCc1nn(C)c2c(=O)[nH]c(-c3cc(S(=O)(=O)N4CCN(C)CC4)ccc3OCC)nc12

- activity at 300 µM [3]: 45%
Molecule: Nc1nc2ncc(CNc3ccc(C(=O)N[C@@H](CCC(=O)O)C(=O)O)cc3)nc2c(=O)[nH]1 [FOLIC ACID]

- activity at 30 µM [4]: 53.8%
Molecule: COc1ccc(CCN(C)CCCC(C#N)(c2ccc(OC)c(OC)c2)C(C)C)cc1OC (centres undefined)

- activity at 300 µM [5]: 71.2%
Molecule: Nc1nc2c(c(=O)[nH]1)N(C=O)C(CNc1ccc(C(=O)N[C@@H](CCC(=O)O)C(=O)O)cc1)CN2 (some centres undefined) [LEUCOVORIN]

- activity at 10 µM [6]: 34.1%
Molecule: CCCOc1ccccc1-c1nc2nn[nH]c2c(=O)[nH]1 [ZAPRINAST]

- activity at 300 µM [9]: 23.3%
Molecule: O=C1C(CC[S+]([O-])c2ccccc2)C(=O)N(c2ccccc2)N1c1ccccc1 (centres undefined) [SULFINPYRAZONE]

- activity at 1 µM [10]: 56.4%
Molecule: CN(C)C(=O)CCSC(SCCC(=O)O)c1cccc(/C=C/c2ccc3ccc(Cl)cc3n2)c1 (centres undefined) [MK-571]

— ChEMBL document CHEMBL2074469, “Analysis of methotrexate and folate transport by multidrug resistance protein 4 (ABCC4): MRP4 is a component of the methotrexate efflux system” (Cancer Res, 2002)
